Data on four compounds can be found in patent US20180200331A1, “BST-2 AS A THERAPEUTIC TARGET AND DIAGNOSTIC MARKER FOR BREAST CANCER GROWTH AND METASTASIS” (University of Iowa Research Foundation, priority 2015, published 2018).

For orientation: half-life means how long it takes for the measured level to halve. A low value points to fast loss.

One data set can be described thus: Half-life of B49nc. From the text: We generated a truncated form of B49 called “B49nc” having the sequence […] (SEQ ID NO:14).
The next data set deals with MDA-MB-231 cells. In words: Cancer cell to cancer cell adhesion assay on MDA-MB-231 shControl monolayers. The following applies: monolayers blocked with 200 ng/well for 4 hours; adhesion 4 hours. In kind it is cell-based, human. As for the experimental part:
FIG. 46. […] Moreover, MDA-mb-231 SHcONTROL CELLS WERE ADDED TO mda-mb-231 ShBST-2 monolayers (on shBST-2). (Each data point corresponds to six different wells analyzed. Error bars correspond to SEM. Significance was taken at P<0.0005*** or P<0.0001****.
MDA-MB-231 cells expressing shBST-2 or shControl were plated to confluency in a 96-well plate. MDA-MB-231 shControl cells were blocked with water (Vehicle), 200 ng/well of recombinant BST-2 (Sino Biological Inc.), 200 ng/well of B49 peptide or 200 ng of B49nc peptide for 4 hours. Wells were washed twice with PBS and then PKH67 labeled MDA-MB-231 shControl cells were added to wells at 25,000 cells/well. Cells were allowed to adhere for 4 hours at 37° C. Non-adhered cells were washed off with PBS and plates were read at 485 nm/535 nm (excitation/emission) wavelengths using a Tecan Infinite M200 Pro plate reader (Tecan). Values are represented as relative fluorescence intensity (RFI).

Data set [1] concerns BST-2. Briefly: 5-azacytidine treatment, BST-2 RT-qPCR and flow cytometry. In kind it is cell-based, human. The note with it: 1 uM for 5 days. As for the experimental part: Cell lines of interest were plated at 150,000 cells/well in a 6-well plate and treated with DMSO (vehicle) or 1 μM of 5-azacytidine (5-azaC, Sigma Aldrich) for 5 days. Cells were harvested using 0.25% trypsin-EDTA (Mediatech, Corning, N.Y., USA). Post-incubation, 8 ml of 10% FBS-containing RPMI media (Life Technologies) was added and cells were centrifuged. Media was aspirated and individual cells were resuspended in 2% FBS-containing PBS (Life Technologies). Cell suspension was passed through a […] cell strainer (Falcon). Cells were incubated at 4° C. for 1 hour with APC-conjugated anti-BST-2 primary antibodies or appropriate IgG (Ebioscience) and washed with 1×PBS. After washing, cells were incubated with the fluorescent intercalator-7-aminoactinomycin D (7-AAD) (BioLegend) at 4° C. for 30 minutes to exclude dead cells. Stained cells were quantified using a FACS Calibur flow cytometer (BD). 10,000 events were collected per sample and FACS data were analyzed and plotted using Flowjo software (TreeStar).
(§1) Human normal and breast cancer cell lines were plated at 150,000 cells/well in a 6-well plate and treated with DMSO (vehicle) or 1 μM of 5-azacytidine (5-azaC, Sigma Aldrich) for 5 days. Cells were lifted using Versene (a gentle cell dissociator, Life Technologies), washed with PBS, pelleted and stored at −20° C. until required for analysis. RNA was isolated from frozen cells using the RNeasy mini kit (Qiagen) according to manufacturer's instructions. Equivalent amounts of RNA were treated with DNase (Qiagen). A portion of RNA was subjected to cDNA synthesis (ABI) as previously described. RNA concentration and purity were assessed at 260/280 nm using the spectrophotometer. Using synthesized cDNA, sequence-specific primers were used to amplify BST-2 [4] and GAPDH [13,48]. Claudin-6 was amplified with (F: […], R: […]) primer pair. RT-qPCR was carried out with an ABI 7500 FAST thermal cycler in triplicates as previously described.

The subject of data set [2] is Claudin-6 (CLDN6). Briefly: 5-azacytidine treatment, CLDN6 RT-qPCR. In kind it is cell-based, human. The following applies: HMLE, MCF-7, SK-BR-3, MDA-MB-231 cells, 1 uM for 5 days. On the procedure:
as §1
On the technique in general: Real-time PCR tracks product formation cycle by cycle.

A further data set deals with E0771 or 4T1 cells. Briefly: Cell invasion assay (Matrigel). The following applies: 24 h. In kind it is cell-based, mouse. As for the experimental part:
The apical chamber of 24-well cell culture inserts (Merck Millipore) were coated with 3 mg/ml of Matrigel (100 μl) (Sigma-Aldrich) and allowed to solidify for 5 hours. A total of 100,000 sh413- or shControl-transduced E0771 or 4T1 cells in serum-free medium were plated on top of the Matrigel layer. Culture medium containing 10% FBS and 5 μg/ml fibronectin (adhesive substrate) (Sigma-Aldrich) was added to the basal chamber of the unit (600 μl) and cells were allowed to invade through the membranous barrier for 24 hours at 37° C. Noninvasive cells were washed off; invasive cells were fixed with 4% PFA, permeabilized with 100% methanol, labeled with Giemsa stain and imaged as described in the previous paragraph. Images were processed using Image J software. Cells from five different fields were counted and averaged.

Data set [3] deals with mammary cancer cells. Briefly: Transformation assay (soft agar colony formation). In kind it is cell-based, mouse. The following applies: compared to shControl. On the procedure: Agar was mixed in Roswell Park Memorial Institute medium (RPMI) with 20% FBS. A total of 500 μl of 0.5% agar was added to 24-well plate and allowed to solidify. Cells were plated at 1,250 cells/well in 500 μl of 0.35% agarose. Some 250 μl of the appropriate growth medium was added on top of the agarose layer. Growth medium was replaced twice a week. Colonies were stained with crystal violet and imaged. Colonies from five different fields were counted and averaged.

The subject of data set [4] is E0771 cells. In words: Boyden chamber assay. In kind it is cell-based, mouse. The note with it: 20 hours. On the procedure:
The apical chamber of 24-well cell culture inserts (Merck Millipore, Billerica, Mass., USA) were seeded with previously starved sh137, sh413 or shControl transduced E0771 cells (150,000) in serum-free medium. Culture medium containing 30% FBS was added to the basal chamber of the unit and cells were allowed to migrate through the membranous barrier for 20 hours at 37° C. Non-migrated cells were washed off, migrated cells were fixed with 4% PFA for 5 minutes, washed twice with 1×PBS, permeabilized with 100% methanol for 25 minutes, labeled with Giemsa stain (for 15 minutes at room temperature) and imaged using a Nikon Eclipse Ti microscope adjusted with an X-cite series 120 LED fluorescence microscope light source and a Nikon digital sight camera. Images were processed using Image J software. Cells from five different fields were counted and averaged.

In a further data set the test system is E0771 and 4T1 cells. Briefly: BrdU assay. In kind it is cell-based, mouse. As for the experimental part: A total of 5,000 cells were plated in 96-well plates for 24 hours. Bromodeoxyuridine or 5-bromo-2′-deoxyuridine (BrdU) (Calbiochem, Billerica, Mass., USA) assay was carried out according to the manufacturer's instructions. Absorbance at 450 nm was read using a Tecan Infinite plate reader. In parallel, 150,000 cells were plated in 24-well plates for 24 hours. Cells were incubated with BrdU label (1:2000) for 20 hours, treated with a fixative/denaturing solution (30 minutes) and incubated with an anti-BrdU antibody (1:1000) and rat anti-mouse BST-2 antibody (1:200, eBioscience) for 1 hour at room temperature. Cells were washed and incubated with Alexa Fluor 594 anti-rat (Invitrogen, Waltham, Mass., USA) and Alexa Fluor 488 anti-mouse (Invitrogen) secondary antibodies for 30 minutes at room temperature. Cells were stained with 4′,6-diamidino-2-phenylindole (DAPI)-containing Vectashield (Vector Laboratories, Burlingame, Calif., USA) and imaged using a Zeiss 710 confocal microscope (Carl Zeiss, Oberkochen, Germany). Images were processed using Image J software. BrdU label, fixative/denaturing solution, and anti-BrdU antibody were from BrdU (Calbiochem) assay.

Data set [5] has as its system E0771 cells. In words: MTT assay, E0771. In kind it is cell-based, mouse. As for the experimental part:
A total of 5,000 cells stably expressing sh137, sh413, or shControl were plated in 96-well plates. Cells were then incubated with 5 mg/ml MTT reagent for 3.5 hours followed by addition of MTT solvent (0.1% NP-40 and 4 mM HCl in isopropanol) and rocking for 15 minutes. Absorbance at 590 nm was read using a Tecan Infinite M200 Pro plate reader.

For data set [6], the system named is mammary cancer cells. Briefly: Scratch assay. It is filed as cell-based, mouse. The note with it: 6 h and 24 h. On the procedure:
Confluent monolayers of cancer cells plated in 12-well plates were scratched using a pipette tip. Fresh medium was added to the wells. Cells were allowed to migrate for 0, 6 or 24 hours before fixation (4% paraformaldehyde (PFA) for 45 minutes). Fixed cells were washed (1×PBS) and imaged with a Nikon Eclipse Ti microscope adjusted with a Nikon digital sight camera (Nikon, Tokyo, Japan). Images were processed and migrated cells counted using Image J software.

Data set [7] relates to BST-2. In words: shRNA knockdown of BST-2 in E0771 and 4T1 cells. It is filed as cell-based, mouse. The note with it: E0771 and 4T1 cells stably transduced. From the text:
E0771 and 4T1 cells were stably transduced with a construct expressing LV-CMV-firefly luciferase or an empty vector construct using lipofectamine following the manufacturer's instructions (Life Technologies, Carlsbad, Calif., USA). Stable transfectants were then transduced with lentiviral particles carrying BST-2-targeting sh137: CCGGC […] (SEQ ID NO:3); sh413: […] TTCTCAAGCTTTTTG (SEQ ID NO:4); or a non-targeting shControl: […] (SEQ ID NO:5) using a previously described protocol. Stable cells were generated by selection with the appropriate drug. The short hairpin RNA (shRNA) constructs were purchased from Sigma-Aldrich (St Louis, Mo., USA) (SHCLND-NM_198095) and lentiviral particles were generated at the Gene Transfer Vector Core at the University of Iowa.
Cell monolayers were washed with PBS and treated with Versene (Life Technologies). […] Stained cells were quantified using a FACSCalibur flow cytometer (BD Biosciences, San Jose, Calif., USA). […] Fluorescence-activated cell sorting (FACS) data were analyzed by Flowjo software (TreeStar, Ashland, Oreg., USA). […]
Western blots were performed as previously described. […] Band detection and quantification were carried out with the Odyssey Infrared Imaging System (LI-COR Biosciences, Lincoln, Nebr., USA).

The subject of data set [8] is Claudin-6 (CLDN6). The note with it: all cell types, GEO datasets; cited from earlier work.
Data set [9] has as its system BST-2. The following applies: cited from earlier work.

Read-outs that look alike come from different tables or passages of the source. No end group written: not given here.

Consider “TIKANSEACRDGLRAVMECRNVTHLLQQELTEAQKGFQDVEAQAATCNHTVMA (cysteines drawn unpaired) [B49nc]”, for which the half-life in the data set “Half-life of B49nc” was around 20 h. Besides, in the data set on MDA-MB-231 cells, the “cancer cell adhesion (relative fluorescence intensity)” value was “inhibits cancer cell adhesion”.
On to `Nc1ncn([C@@H]2O[C@H](CO)[C@@H](O)[C@H]2O)c(=O)n1` [5-AzaC, 5-azacytidine], for which the “BST-2 levels (RNA and protein)” value in the data set on BST-2 [1] (HMLE cells) and with BST-2 [1] (MCF-7 cells) was “significant increase” each time. For the same compound, the “BST-2 mRNA and protein levels” value with BST-2 [1] (MDA-MB-231 cells) and with BST-2 [1] (SK-BR-3 cells) was “unchanged” each time. The “CLDN6 mRNA level” value with Claudin-6 (CLDN6) [2] is given as “induced in all cell types”.
On to “sh137: BST-2-targeting shRNA (SEQ ID NO:3), delivered by lentiviral particles (CCGGCGCGATCTTGGTGGTCCTGTTCTCGAGAACAGGACCACCAAGATCGCGTTTTTG)”, for which the “invasion through Matrigel” value in the data set on E0771 or 4T1 cells is recorded as “reduced the ability of the cells to invade the basement membrane”. Moreover, the “colony numbers in soft agar” value with mammary cancer cells [3] is given as “reduced colony numbers”. Further, in the data set with E0771 cells [4], the “rate of cell migration (Boyden chamber)” value is on record as “significantly reduced rate of cell migration”. In the data set on E0771 and 4T1 cells, the “cell proliferation (BrdU incorporation)” value is given as “no effect on cell proliferation”. For the same compound, the “cell viability (MTT)” value in the data set on E0771 cells [5] is on record as “equally viable”. Moreover, the “migration into scratch wound” value in the data set with mammary cancer cells [6] was “showed some migration”. Further, the BST-2 expression entry in the data set with BST-2 [7] is “reduced BST-2 expression”.
For `Nc1ncn([C@H]2C[C@H](O)[C@@H](CO)O2)c(=O)n1` [DAC, 2′-deoxy-5-azacytidine], in the data set on Claudin-6 (CLDN6) [8], the “CLDN6 mRNA levels” value was “induced in all cell types”. The “BST-2 mRNA expression” value in the data set on BST-2 [9] (HB2 cells, GEO GSE28976) is “increased BST-2 mRNA expression”; in the data set on BST-2 [9] (MCF-7 cells, GEO GSE36683) it was “increased BST-2 mRNA expression”. Moreover, the BST-2 levels result is “did not show any increase” with BST-2 [9] (MDA-MB-231 cells, GEO GSE28976) and “did not show any increase” with BST-2 [9] (SK-BR-3 cells, GEO GSE28976).
